Source: ChEMBL document CHEMBL1123943, “Biologically active dihydrodiol metabolites of polycyclic aromatic hydrocarbons structurally related to the potent carcinogenic hydrocarbon 7,12-dimethylbenz[a]anthracene” (1988)

What was measured:
Type in all cases: functional
Mus musculus [1] = species: Mus musculus; experiment: Tumor initiating activity measured as number of papillomas on mouse skin at a dose of 100 nmol
Mus musculus [2] = species: Mus musculus; experiment: Tumor initiating activity measured as percentage of mice with papillomas at a dose of 100 nmol
Mus musculus [3] = species: Mus musculus; experiment: Tumor initiating activity measured as number of papillomas on mouse skin at a dose of 50 nmol
Mus musculus [4] = species: Mus musculus; experiment: Tumor initiating activity measured as percentage of mice with papillomas at a dose of 50 nmol
Rattus norvegicus [5] = experiment: Tumor initiating activity measured as incidence of % aberrent cells with chromosomal aberrations, at given dose of 25 mg/kg
Rattus norvegicus [6] = experiment: Tumor initiating activity measured as incidence of % aberrent cells with chromosomal aberrations, at given dose of 50 mg/kg
Rattus norvegicus [7] = experiment: Tumor initiating activity measured as number of chromosomal aberrations per cell, at a dose of 25 mg/kg
Rattus norvegicus [8] = experiment: Tumor initiating activity measured as number of chromosomal aberrations per cell, at given dose 50 mg/kg
Rattus norvegicus [9] = experiment: Tumor initiating activity measured as number of chromosomal aberrations per cell, at a dose of 50 mg/kg
Mus musculus [10] = species: Mus musculus; experiment: Tumor initiating activity measured as percentage of mice with papillomas at a dose of 200 nmol
Mus musculus [11] = species: Mus musculus; experiment: Tumor initiating activity measured as number of papillomas on mouse skin at a dose of 200 nmol

`Cc1ccc2cc3c(ccc4c(O)c(O)ccc43)c3c2c1CC3` gave a papillomas per mouse (Mus musculus [1]) of 7.7 papillomas/mouse and an Activity (Mus musculus [2]) of 100%.

For `Cc1c2cccc3c2c(c2ccc4ccccc4c12)CC3`, the papillomas per mouse (Mus musculus [3]) was 14.7 papillomas/mouse and the Activity (Mus musculus [4]) was 100%.

Work on `Cc1c2ccccc2c(C)c2c1ccc1c(O)c(O)ccc12` yielded an Activity (Rattus norvegicus [5]) of 22.2%, an Activity (Rattus norvegicus [6]) of 53% and an aberrations per cell (Rattus norvegicus [7]) of 0.31 aberrations/cell. It also gave an aberrations per cell (Rattus norvegicus [8]) of 1.44 aberrations/cell.

Compound `Cc1c2cccc3c2c(c2ccc4c(O)c(O)ccc4c12)CC3` has a papillomas per mouse (Mus musculus [3]) of 16.5 papillomas/mouse and an Activity (Mus musculus [4]) of 100%.

`Oc1ccc2c(ccc3cc4ccccc4cc32)c1O` was tested, and the Activity (Rattus norvegicus [6]) was 2.2% and the aberrations per cell (Rattus norvegicus [9]) was 0.02 aberrations/cell.

`Oc1ccc2c(ccc3c4c5c(cccc5cc32)CC4)c1O` showed an Activity (Mus musculus [10]) of 80% and a papillomas per mouse (Mus musculus [11]) of 3.32 papillomas/mouse.

In the case of `Cc1c2ccccc2cc2ccc3c(O)c(O)ccc3c12`, the Activity (Rattus norvegicus [5]) was 12.8% and the aberrations per cell (Rattus norvegicus [7]) was 0.17 aberrations/cell.

With `Cc1c2ccccc2cc2c1ccc1c(O)c(O)ccc12` the Activity (Rattus norvegicus [6]) was 6.6% and the aberrations per cell (Rattus norvegicus [9]) was 0.07 aberrations/cell.

`Cc1ccc2cc3c(ccc4ccccc43)c3c2c1CC3` [3-METHYLCHOLANTHRENE] gave a papillomas per mouse (Mus musculus [1]) of 7.13 papillomas/mouse and an Activity (Mus musculus [2]) of 97%.

`c1cc2c3c(c4ccc5ccccc5c4cc3c1)CC2` [CHOLANTHRENE] showed an Activity (Mus musculus [10]) of 93% and a papillomas per mouse (Mus musculus [11]) of 6.9 papillomas/mouse.
